Assay results reported in patent publication US20110223167A1, “COMBINATION THERAPY USING RECEPTOR TYROSINE KINASE INHIBITORS AND ANGIOGENESIS INHIBITORS” (priority 2001, published 2011).

Tested on: progressive squamous cell carcinoma of the superior maxilla
Conditions: for tumor response: weekly: 1200 mg/m^2 Cilengitide Monday and Friday, 200 mg EMD 72000 followed by 1000 mg/m^2 gemcitabine Thursday, from November 2000; for effect on tumor growth: cisplatin (75 mg/m^2) and docetaxel (75 mg/m^2) together, three administrations, from August 1999
[1] = EMD 121974 (600 mg/m^2) combined with gemcitabine (1000 mg/m^2), since mid of January 2000

Protocol: Case History and Clinical Findings/Status at the Start of the Compassionate use Treatment:
A biopsy of the suspected large tumor in the upper maxilla was performed. […] On Aug. […] Due to the unfavourable histologic classification the patient received a post-operative radiation therapy up to 50.4 Gray from September to October 1997.
In July 1998 progression of disease was suspected which led to hospitalization. […] After consultation of radiotherapists another radiotherapy was recommended which started in August 1998. The patient was treated simultaneously with gemcitabine (100 mg) as a radiosensitizer. […] Following the combined radio-chemotherapy the patient received a therapy with 1000 mg gemcitabine (5 circles of 16 administrations).
In March 1999 again progression of the carcinoma occurred which led to additional radiation therapy and palliative resection of the tumor.
Diffuse bleedings out of the large tumor mass required frequent transfusions of erythrocyte concentrates.
Course of Compassionate Use Treatment with Anti-Angiogenic Agent/Chemotherapeutic Agents:
The patient was treated with EMD 121974 and Gemzar from Nov. 17, 1999 until Mar. 30, 2000. From Jun. 04, 2000 until Apr. […] Chemotherapy-treatment was stopped because of haematotoxicity and Cilengitide treatment was continued alone.
The patient's condition worsened after several weeks and the patient was treated with an increased dose of 1200 mg/m^2 EMD 121974 twice weekly.
Treatment with h425+Cilengitide+Chemotherapeutics:
EMD 72000 was first given in November 2000 in a dosage of 200 mg (infusion over half an hour) after premedication with dexamethasone/dimetindenmaleate (Fenistil) and ranitidin (Zantic). One week later the patient received additionally gemcitabine (1000 mg/m^2). The weekly treatment schedule was: Monday: 1200 mg/m^2 Cilengitide (one hour is infusion), Thursday 200 mg EMD 72000 (half an hour infusion) followed by 1000 mg/m^2 gemcitabine (one hour infusion), Friday 1200 mg/m^2 Cilengitide (one hour infusion). […] The tumor masses were surgically removed at several occasions.

For `CC(C)[C@H]1C(=O)N[C@@H](CCCN=C(N)N)C(=O)NCC(=O)N[C@@H](CC(=O)O)C(=O)N[C@H](Cc2ccccc2)C(=O)N1C` [EMD 121974, Cyclo-(Arg-Gly-Asp-DPhe-NMeVal)], the “surface of the tumor” value (EMD 121974 (600 mg/m^2) combined with gemcitabine (1000 mg/m^2)) was “signs of granulation and wound healing”, the tumor bleeding (EMD 121974 (600 mg/m^2) combined with gemcitabine (1000 mg/m^2), no need for further transfusions) was “Bleeding stopped” and the hearing [1] was “able to hear again on their right ear”. The “increase of mouth opening compared with December 1999” value [1] was 30%, the disease status (EMD 121974 alone, 600 mg/m^2 twice a week, April to June 2000) was “stable disease” and the tumor response was “crater-like disintegration of the tumor mass”.
For `N.N.[Cl][Pt][Cl]` [cisplatin, reference compound], the “effect on tumor growth” value was “lack of effect on tumor growth”.
In the case of `CC(=O)O[C@@]12CO[C@@H]1C[C@H](O)[C@@]1(C)C(=O)[C@H](O)C3=C(C)[C@@H](OC(=O)[C@H](O)[C@@H](NC(=O)OC(C)(C)C)c4ccccc4)C[C@@](O)([C@@H](OC(=O)c4ccccc4)[C@H]21)C3(C)C` [docetaxel, reference compound], the “effect on tumor growth” value is reported as “lack of effect on tumor growth”.
In the case of `Nc1ccn([C@@H]2O[C@H](CO)[C@@H](O)C2(F)F)c(=O)n1` [gemcitabine, reference compound], the “tumor response (clinical remission)” value (radiotherapy with simultaneous gemcitabine (100 mg) as radiosensitizer, 6 week-therapy from August 1998) is reported as “complete clinical remission”.
In the case of “EMD 72000: Monoclonal human antibody 425 (h425), Merck KgaA, Germany; anti-EGFR antibody”, the tumor response is reported as “crater-like disintegration of the tumor mass”.
